In the test the target is T1, human H3 receptor (Homo sapiens, UniProt Q9Y5N1).
T1 construct: purchased Perkin Elmer ES-392-M400UA; host or cells: CHO-K1 cells (recombinant expression), membrane preparation
As to the kind of experiment: H3 Receptor Binding Test. To be noted: 50% inhibition of R(−)-α-methyl[3H]histamine (1 nM) binding; membrane preparation of human H3 receptor-expressing CHO-K1 cells. The method, then: A membrane preparation of human H3 receptor-expressing CHO-K1 cells (Perkin Elmer, ES-392-M400UA, 15 μg protein/200 μl), R(−)-α-methyl[^3H]histamine (Amersham, TRK-1017, specific activity: 1.74 TBq/mmol, 1 nM) and a test drug were reacted at room temperature for 1 hour. After completion of the reaction, the reaction mixture was subjected to suction filtration through a 0.3% polyethyleneimine-treated glass filter (GF/C). The glass filter was washed five times with 50 mM Tris-HCl washing solution (pH 7.4) containing 5 mM EDTA. After washing, the glass filter was dried and a scintillator was added thereto, followed by measurement of radioactivity on the filter using a liquid scintillation counter.
Binding of R(−)-α-methyl[^3H]histamine in the presence of 10 μM R(−)-α-methylhistamine was defined as non-specific binding, and the difference between total binding and non-specific binding of R(−)-α-methyl[^3H]histamine was defined as specific binding of R(−)-α-methyl[^3H]histamine. A fixed concentration (1 nM) of R(−)-α-methyl[^3H]histamine was reacted under the above conditions with each test drug at various concentrations to obtain an inhibition curve. The inhibition curve was used to determine the concentration (IC50) of each test drug required for 50% inhibition of R(−)-α-methyl[^3H]histamine binding.

T1 sequence (Q9Y5N1 whole entry): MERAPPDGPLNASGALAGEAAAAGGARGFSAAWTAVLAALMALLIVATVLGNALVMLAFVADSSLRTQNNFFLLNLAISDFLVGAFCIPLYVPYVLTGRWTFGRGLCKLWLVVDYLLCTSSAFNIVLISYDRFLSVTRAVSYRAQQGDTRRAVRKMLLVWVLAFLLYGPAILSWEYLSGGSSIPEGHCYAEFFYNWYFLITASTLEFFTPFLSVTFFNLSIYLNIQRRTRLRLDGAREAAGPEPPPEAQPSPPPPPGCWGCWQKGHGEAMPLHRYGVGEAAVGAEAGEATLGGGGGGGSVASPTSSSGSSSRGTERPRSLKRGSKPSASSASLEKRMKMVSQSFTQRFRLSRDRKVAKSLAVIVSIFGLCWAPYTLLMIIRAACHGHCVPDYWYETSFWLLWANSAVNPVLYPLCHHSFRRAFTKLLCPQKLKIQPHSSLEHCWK

Broadly, the IC50 is the midpoint of a concentration-inhibition curve. On to `C[C@@H]1CCCN1CCCOc1ccc2c(c1)CCC(=O)N2c1ccc(N2CCCC2=O)cc1` [Compound No. 18, 6-{3-[(2R)-2-methylpyrrolidin-1-yl]propoxy}-1-[4-(2-oxopyrrolidin-1-yl)phenyl]-3,4-dihydroquinolin-2(1H)-one], for which the IC50 was determined as 20 nM.
Under `C[C@@H]1CCCN1CCCOc1ccc2c(c1)CCC(=O)N2c1ccc(-c2cnco2)cc1` [Compound No. 19, 6-{3-[(2R)-2-methylpyrrolidin-1-yl]propoxy}-1-[4-(1,3-oxazol-5-yl)phenyl]-3,4-dihydroquinolin-2(1H)-one] stands 4 nM.
Under `Cc1ccc(Oc2ccc(N3C(=O)CCc4cc(OCCCN5CCC[C@H]5C)ccc43)cc2)nn1` [Compound No. 20, 1-{4-[(6-methylpyridazin-3-yl)oxy]phenyl}-6-{3-[(2R)-2-methylpyrrolidin-1-yl]propoxy}-3,4-dihydroquinolin-2(1H)-one] stands 1 nM; under `C[C@@H]1CCCN1CCCOc1ccc2c(c1)CCC(=O)N2c1cccc(C(=O)N(C)C)c1` [Compound No. 21, N,N-dimethyl-3-[6-{3-[(2R)-2-methylpyrrolidin-1-yl]propoxy}-2-oxo-3,4-dihydroquinolin-1(2H)-yl]benzamide], 26 nM; under `COc1cccc(N2C(=O)CCc3cc(OCCCN4CCC[C@H]4C)ccc32)c1` [Compound No. 22, 1-(3-methoxyphenyl)-6-{3-[(2R)-2-methylpyrrolidin-1-yl]propoxy}-3,4-dihydroquinolin-2(1H)-one], 1.6 nM.
The result for `COc1ccccc1N1C(=O)CCc2cc(OCCCN3CCC[C@H]3C)ccc21` [Compound No. 23, 1-(2-methoxyphenyl)-6-{3-[(2R)-2-methylpyrrolidin-1-yl]propoxy}-3,4-dihydroquinolin-2(1H)-one] reads 1.2 nM; that for `C[C@@H]1CCCN1CCCOc1ccc2c(c1)CCC(=O)N2c1cccc(F)c1` [Compound No. 24, 1-(3-fluorophenyl)-6-{3-[(2R)-2-methylpyrrolidin-1-yl]propoxy}-3,4-dihydroquinolin-2(1H)-one], 0.92 nM; that for `COc1ccc(N2C(=O)CCc3cc(OCCCN4CCC[C@H]4C)ccc32)c(OC)c1` [Compound No. 25, 1-(2,4-dimethoxyphenyl)-6-{3-[(2R)-2-methylpyrrolidin-1-yl]propoxy}-3,4-dihydroquinolin-2(1H)-one], 2 nM.
Regarding `COc1cc(F)cc(N2C(=O)CCc3cc(OCCCN4CCC[C@H]4C)ccc32)c1` [Compound No. 26, 1-(3-fluoro-5-methoxyphenyl)-6-{3-[(2R)-2-methylpyrrolidin-1-yl]propoxy}-3,4-dihydroquinolin-2(1H)-one], the IC50 was determined as 2.4 nM.
Consider `C[C@@H]1CCCN1CCCOc1ccc2c(c1)CCC(=O)N2c1cc(F)cc(F)c1` [Compound No. 27, 1-(3,5-difluorophenyl)-6-{3-[(2R)-2-methylpyrrolidin-1-yl]propoxy}-3,4-dihydroquinolin-2(1H)-one], for which the half-maximal inhibitory concentration (IC50) was 2.1 nM.
On to `C[C@@H]1CCCN1CCCOc1ccc2c(c1)CCC(=O)N2c1ccc(F)c(F)c1` [Compound No. 28, 1-(3,4-difluorophenyl)-6-{3-[(2R)-2-methylpyrrolidin-1-yl]propoxy}-3,4-dihydroquinolin-2(1H)-one], for which the IC50 was 1 nM.
Under `C[C@@H]1CCCN1CCCOc1ccc2c(c1)CCC(=O)N2c1ccc(F)cc1F` [Compound No. 29, 1-(2,4-difluorophenyl)-6-{3-[(2R)-2-methylpyrrolidin-1-yl]propoxy}-3,4-dihydroquinolin-2(1H)-one] stands 1 nM; under `C[C@@H]1CCCN1CCCOc1ccc2c(c1)CCC(=O)N2c1ccc(Cl)cc1F` [Compound No. 30, 1-(4-chloro-2-fluorophenyl)-6-{3-[(2R)-2-methylpyrrolidin-1-yl]propoxy}-3,4-dihydroquinolin-2(1H)-one], 1.1 nM; under `C[C@@H]1CCCN1CCCOc1ccc2c(c1)CCC(=O)N2c1cc(Cl)cc(C#N)c1` [Compound No. 31, 3-chloro-5-[6-{3-[(2R)-2-methylpyrrolidin-1-yl]propoxy}-2-oxo-3,4-dihydroquinolin-1(2H)-yl]benzonitrile], 1.9 nM.
Take `Cc1ccc(N2C(=O)CCc3cc(OCCCN4CCC[C@H]4C)ccc32)cc1C#N` [Compound No. 32, 2-methyl-5-[6-{3-[(2R)-2-methylpyrrolidin-1-yl]propoxy}-2-oxo-3,4-dihydroquinolin-1(2H)-yl]benzonitrile]: the IC50 is 2.7 nM.
Under `COc1ccc(N2C(=O)CCc3cc(OCCCN4CCC[C@H]4C)ccc32)cc1C#N` [Compound No. 33, 2-methoxy-5-[6-{3-[(2R)-2-methylpyrrolidin-1-yl]propoxy}-2-oxo-3,4-dihydroquinolin-1(2H)-yl]benzonitrile] stands 4 nM; under `C[C@@H]1CCCN1CCCOc1ccc2c(c1)CCC(=O)N2c1ccccn1` [Compound No. 34, 6-{3-[(2R)-2-methylpyrrolidin-1-yl]propoxy}-1-(pyridin-2-yl)-3,4-dihydroquinolin-2(1H)-one], 8.1 nM.
For `C[C@@H]1CCCN1CCCOc1ccc2c(c1)CCC(=O)N2c1cccnc1` [Compound No. 35, 6-{3-[(2R)-2-methylpyrrolidin-1-yl]propoxy}-1-(pyridin-3-yl)-3,4-dihydroquinolin-2(1H)-one], the IC50 amounted to 2.2 nM.
The result for `C[C@@H]1CCCN1CCCOc1ccc2c(c1)CCC(=O)N2c1cncnc1` [Compound No. 36, 6-{3-[(2R)-2-methylpyrrolidin-1-yl]propoxy}-1-(pyrimidin-5-yl)-3,4-dihydroquinolin-2(1H)-one] reads 5.8 nM; that for `C[C@@H]1CCCN1CCCOc1ccc2c(c1)CCC(=O)N2c1cnc2ccccc2c1` [Compound No. 37, 6-{3-[(2R)-2-methylpyrrolidin-1-yl]propoxy}-3,4-dihydro-2H-1,3′-biquinolin-2-one], 3.1 nM; that for `C[C@@H]1CCCN1CCCOc1ccc2c(c1)CCC(=O)N2c1ccc2ncccc2c1` [Compound No. 38, 6-{3-[(2R)-2-methylpyrrolidin-1-yl]propoxy}-3,4-dihydro-2H-1,6′-biquinolin-2-one], 2.9 nM.
As for `C[C@@H]1CCCN1CCCOc1ccc2c(c1)CCC(=O)N2c1cnc2cccnc2c1` [Compound No. 39, 6-{3-[(2R)-2-methylpyrrolidin-1-yl]propoxy}-1-(1,5-naphthylizin-3-yl)-3,4-dihydroquinolin-2(1H)-one], the IC50 came out at 4.4 nM.
Under `C[C@@H]1CCCN1CCCOc1ccc2c(c1)CCC(=O)N2c1cncc2cccnc12` [Compound No. 40, 6-{3-[(2R)-2-methylpyrrolidin-1-yl]propoxy}-1-(1,6-naphthylizin-8-yl)-3,4-dihydroquinolin-2(1H)-one] stands 20 nM; under `C[C@@H]1CCCN1CCCOc1ccc2c(c1)CCC(=O)N2c1ccc2c(ccn2C(=O)OC(C)(C)C)c1` [Compound No. 41, tert-butyl 5-[6-{3-[(2R)-2-methylpyrrolidin-1-yl]propoxy}-2-oxo-3,4-dihydroquinolin-1(2H)-yl]-1H-indole-1-carboxylate], 53 nM.
On to `C[C@@H]1CCCN1CCCOc1ccc2c(c1)CCC(=O)N2c1cn(C(=O)OC(C)(C)C)c2ccccc12` [Compound No. 42, tert-butyl 3-[6-{3-[(2R)-2-methylpyrrolidin-1-yl]propoxy}-2-oxo-3,4-dihydroquinolin-1(2H)-yl]-1H-indole-1-carboxylate], for which the IC50 stood at 34 nM.
`C[C@@H]1CCCN1CCCOc1ccc2c(c1)CCC(=O)N2c1ccc2c(c1)OCCO2` [Compound No. 43, 1-(2,3-dihydro-1,4-benzodioxin-6-yl)-6-{3-[(2R)-2-methylpyrrolidin-1-yl]propoxy}-3,4-dihydroquinolin-2(1H)-one]: the IC50 came out at 2.2 nM.
Take `C[C@@H]1CCCN1CCCOc1ccc2c(c1)CCC(=O)N2c1ccc2c(c1)OCO2` [Compound No. 44, 1-(1,3-benzodioxol-5-yl)-6-{3-[(2R)-2-methylpyrrolidin-1-yl]propoxy}-3,4-dihydroquinolin-2(1H)-one]: the IC50 is 1.2 nM.
As for `C[C@@H]1CCCN1CCCOc1ccc2c(c1)CCC(=O)N2c1ccc2c(c1)OCC2` [Compound No. 45, 1-(2,3-dihydro-1-benzofuran-6-yl)-6-{3-[(2R)-2-methylpyrrolidin-1-yl]propoxy}-3,4-dihydroquinolin-2(1H)-one], the IC50 came to 2.3 nM.
As to `C[C@@H]1CCCN1CCCOc1ccc2c(c1)CCC(=O)N2c1ccc(C#N)cn1` [Compound No. 46, 6-[6-{3-[(2R)-2-methylpyrrolidin-1-yl]propoxy}-2-oxo-3,4-dihydroquinolin-1(2H)-yl]pyridine-3-carbonitrile], the IC50 is 22 nM.
Regarding `Cc1ccc(N2C(=O)CCc3cc(OCCCN4CCC[C@H]4C)ccc32)cn1` [Compound No. 47, 1-(6-methylpyridin-3-yl)-6-{3-[(2R)-2-methylpyrrolidin-1-yl]propoxy}-3,4-dihydroquinolin-2(1H)-one], the IC50 worked out at 2.9 nM.
The result for `COc1ccc(N2C(=O)CCc3cc(OCCCN4CCC[C@H]4C)ccc32)cn1` [Compound No. 48, 1-(6-methoxypyridin-3-yl)-6-{3-[(2R)-2-methylpyrrolidin-1-yl]propoxy}-3,4-dihydroquinolin-2(1H)-one] reads 8.7 nM.

(Values after US8609847B2, “Dihydroquinolinone derivatives” (Taisho Pharmaceutical Co., Ltd, priority 2009, dated 2013).)
